Data published in US9376470B2, “Polypeptide having angiogenesis-inducing activity and antibacterial activity, and use thereof for medical purposes” (FunPep Inc., priority 2008, dated 2016).
≈ marks a conversion by molar mass, not a printed value. Peptide text beside a SMILES is read from it.

What was measured:
in vitro = in vitro ADME, rat; settings: for half-life: rat serum, 37° C.; for remaining at 10 min, 500 μg/mL / remaining at 1 h, 500 μg/mL / remaining at 0.5 h, 500 μg/mL: rat, serum
Protocol: Then, the stability of five polypeptides SR-1 to 5 in serum was evaluated.
In human serum (purchased from KAC Co., Ltd.), or in rat serum obtained by collecting blood from a rat, then leaving the collected blood to stand at room temperature followed by centrifugation, each of the peptides was dissolved so as to attain a final concentration of 500 μg/mL, and the obtained solutions were left to stand at 37° C. After leaving to stand for 10 min or 30 min or 60 min, these solutions were subjected to HPLC chromatogram analysis to detect peaks of the decomposition products, and calculate the ratio of the concentration of the peptides which remained in the solutions relative to the starting concentration. In addition, the half-lives of the peptides in serum were also calculated.
HPLC chromatogram analysis conditions are as follows.

[1] = system: Crl:CD (SD) rats, cut wound; assay: Effect to heal cut wounds, rat cut-wound model; assay type: in vivo; settings: for scars of cut wounds / cicatrization by visual observation, compared with the bFGF formulation: rat cut-wound model, data not shown; for wound closing tension: 10, 100 and 1000 μg/mL, 50 μL dropwise once a day, measured on day 6
Protocol: Next, using rat cut-wound model, the effect of the five polypeptides SR-1 to 5 to heal cut wounds in vivo was evaluated. As described in Tetsuaki Yamaura et al. (Oyo Yakuri (Pharmacometrics) 22, 565-579 (1981)), the rat cut-wound model was produced and the wound closing tension was measured. That is, a cut wound of 30 to 36 mm was made on the back of Crl:CD (SD) rats (male, 7-week old, obtained from Charles River Laboratories Japan, Inc.) using a safety razor, and sutured at 3 points equally spaced. The day when this surgical treatment was applied was regarded as […] (day 0). […] Additions of 50 μL physiological saline were regarded as negative controls (Saline). […] The sutures were removed day 3, and the wound closing tension was measured on day 6.

[2] = system: Enterobacteria (1): Enterobacter cloacae JCM 1232; assay: Antibacterial activity, ATP assay (BacTiter-Glo); assay type: cell-based; settings: ATP assay concentration: peptides 10, TOB 4.0, CPFX 1.0, OX 4.0, MEPM 8.0 μg/ml
Protocol: That is, using BacTiter-Glo Microbial Cell Viability Assay kit available from PROMEGA, the antibacterial activity of the peptides was evaluated from the viability of bacteria. […] With respect to the strains, Staphylococcus aureus ATCC29213 (S. aureus ATCC29213) as Gram-positive bacteria, or, alternatively, Pseudomonas aeruginosa (P. aeruginosa ATCC27853) as Gram-negative bacteria, was used. The bacteria were cultured in media for 3 to 4 hours, and thereafter absorbances at A600 were measured. Bacterial suspensions were diluted with Mueller-Hinton broth (MHB) according to McFarland #0.5. Each strain was added so as to attain about 0.5−1×10^5 CFU/mL (final concentration) in terms of Escherichia coli. […] A solution to which the peptides were not added was considered as a negative control, and a solution to which tobramycin (TOB) was added was considered as a positive control. […] Relative values were calculated by comparison with the negative control, and these values were regarded as the viability. […] ATP (%) of the antibacterial activity was measured in the same manner as mentioned above, and the “minimum inhibitory concentration (MIC)” was measured as follows. MIC is the lowest concentration of an agent that may inhibit the growth of a bacterium. MIC is used as a parameter for the efficacy of an antibacterial agent, for the strength of bacterial sensitivity, or the like. The bacteria can grow (proliferate) when the concentration is not higher than MIC, and cannot grow when the concentration is higher than MIC. […] (CLSI), but, in this Example, its measurement was carried out by a broth microdilution method in accordance with “M100-S17/M7-A7” (Performance Standards for Antimicrobial Susceptibility Testing; Seventeenth Informational Supplement, Vol. 27 No. 1) published by CLSI on January, 2007. That is, sensitivity test of agents was carried out using a microtiter plate or test tubes. With respect to each strain, Escherichia coli: ATCC 25922 (Escherichia coli ATCC 25922), Pseudomonas aeruginosa: ATCC 27853 (Pseudomonas aeruginosa ATCC 27853), Staphylococcus aureus: ATCC29213 (Staphylococcus aureus ATCC29213), Klebsiella pneumoniae: JCM 1662 (Klebsiella pneumoniae JCM 1662), enterobacteria (1): JCM 1232 (Enterobacter cloacae JCM 1232), enterobacteria (2): JCM 1235 (Enterobacter aerogenes JCM 1235), and Staphylococcus epidermidis: JCM 2414 (Staphylococcus epidermidis JCM 2414), were used. […] As the concentrations of the agents in ATP assay, the concentrations as described in the Tables were used.

[3] = system: Pseudomonas aeruginosa ATCC 27853; assay: microbe, parasite or virus in culture; assay type: cell-based; settings: 37° C., 20 hours
Protocol: (§1) ATP (%) of the antibacterial activity was measured in the same manner as mentioned above, and the “minimum inhibitory concentration (MIC)” was measured as follows. MIC is the lowest concentration of an agent that may inhibit the growth of a bacterium. MIC is used as a parameter for the efficacy of an antibacterial agent, for the strength of bacterial sensitivity, or the like. The bacteria can grow (proliferate) when the concentration is not higher than MIC, and cannot grow when the concentration is higher than MIC. […] (CLSI), but, in this Example, its measurement was carried out by a broth microdilution method in accordance with “M100-S17/M7-A7” (Performance Standards for Antimicrobial Susceptibility Testing; Seventeenth Informational Supplement, Vol. 27 No. 1) published by CLSI on January, 2007. That is, sensitivity test of agents was carried out using a microtiter plate or test tubes. The bacteria were cultured in the liquid media for 4 to 6 hours, and thereafter absorbances at A600 were measured. Bacterial suspensions were diluted with Mueller-Hinton broth (MHB) according to McFarland #0.5. Each strain was added so as to attain about 10^5 CFU/ml (final concentration). Each peptide was prepared to an optional concentration, and the solutions were serially diluted from the concentration. The polypeptide at each concentration stage was added to a microplate or test tubes, and the bacterial suspension was added thereto. […] The plate was incubated at 37° C. for 20 hours, the lowest concentration where bacterial growth was inhibited was regarded as the minimum inhibitory concentration. With respect to each strain, Escherichia coli: ATCC 25922 (Escherichia coli ATCC 25922), Pseudomonas aeruginosa: ATCC 27853 (Pseudomonas aeruginosa ATCC 27853), Staphylococcus aureus: ATCC29213 (Staphylococcus aureus ATCC29213), Klebsiella pneumoniae: JCM 1662 (Klebsiella pneumoniae JCM 1662), enterobacteria (1): JCM 1232 (Enterobacter cloacae JCM 1232), enterobacteria (2): JCM 1235 (Enterobacter aerogenes JCM 1235), and Staphylococcus epidermidis: JCM 2414 (Staphylococcus epidermidis JCM 2414), were used. […] As the concentrations of the agents in ATP assay, the concentrations as described in the Tables were used.

[4] = system: Staphylococcus epidermidis JCM 2414; assay: microbe, parasite or virus in culture; assay type: cell-based; settings: 37° C., 20 hours
Protocol: as §1

[5] = system: Staphylococcus aureus ATCC29213; assay: microbe, parasite or virus in culture; assay type: cell-based; settings: 37° C., 20 hours
Protocol: as §1

## CC(C)C[C@H](NC(=O)[C@H](CCCCN)NC(=O)[C@H](CCCNC(=N)N)NC(=O)[C@H](CCCCN)NC(=O)[C@H](CC(C)C)NC(=O)[C@H](CCCNC(=N)N)NC(=O)[C@H](CCCCN)NC(=O)[C@H](CCCNC(=N)N)NC(=O)[C@H](CC(C)C)NC(=O)[C@H](CCCNC(=N)N)NC(=O)[C@H](CCCNC(=N)N)NC(=O)[C@H](CCCCN)NC(=O)[C@H](CC(C)C)NC(=O)[C@H](CCCNC(=N)N)NC(=O)[C@H](Cc1c[nH]cn1)NC(=O)[C@H](CC(C)C)NC(=O)[C@H](Cc1ccccc1)NC(=O)[C@H](CCCNC(=N)N)NC(=O)[C@H](CC(C)C)NC(=O)[C@@H](N)CCC(=O)O)C(=O)N[C@@H](CCCNC(=N)N)C(N)=O [SR-2] (H-ELRFLHRLKRRLRKRLKRKLR-NH2; N-terminus assumed)
In vitro
  decomposition in rat serum: 35-55%
  half-life: 1.25 h
  remaining at 10 min, 500 μg/mL: 69%
  remaining at 1 h, 500 μg/mL: 51.7%
[1]
  scars of cut wounds / cicatrization by visual observation, compared with the bFGF formulation: cicatrization was hardly observed
[2]
  ATP (%) mean, Enterobacteria (1): 3.0%

## CC[C@H](C)[C@H](NC(=O)[C@H](CC(C)C)NC(=O)[C@@H](N)CCCCN)C(=O)N[C@@H](Cc1ccccc1)C(=O)N[C@@H](CC(C)C)C(=O)N[C@@H](Cc1c[nH]cn1)C(=O)N[C@@H](CCCNC(=N)N)C(=O)N[C@@H](CC(C)C)C(=O)N[C@@H](CCCCN)C(=O)N[C@@H](CCCNC(=N)N)C(=O)N[C@@H](CCSC)C(=O)N[C@@H](CCCNC(=N)N)C(=O)N[C@@H](CCCCN)C(=O)N[C@@H](CCCNC(=N)N)C(=O)N[C@@H](CC(C)C)C(=O)N[C@@H](CCCCN)C(=O)N[C@@H](CCCNC(=N)N)C(=O)N[C@@H](CCCCN)C(=O)N[C@@H](CC(C)C)C(=O)N[C@@H](CCCNC(=N)N)C(N)=O [SR-4] (H-KLIFLHRLKRMRKRLKRKLR-NH2; N-terminus assumed)
In vitro
  decomposition in rat serum: 35-55%
  half-life: 1.58 h
  remaining at 0.5 h, 500 μg/mL: 95%
  remaining at 1 h, 500 μg/mL: 64.5%
[1]
  wound closing tension: effect of increasing the wound closing tension
  scars of cut wounds / cicatrization by visual observation, compared with the bFGF formulation: cicatrization was hardly observed
[2]
  ATP (%) mean, Enterobacteria (1): 4.9%

## CSCC[C@H](NC(=O)[C@H](CCCNC(=N)N)NC(=O)[C@@H](N)CCCCN)C(=O)N[C@@H](CCCNC(=N)N)C(=O)N[C@@H](CCCCN)C(=O)N[C@@H](CCCNC(=N)N)C(=O)N[C@@H](CC(C)C)C(=O)N[C@@H](CCCCN)C(=O)N[C@@H](CCCNC(=N)N)C(=O)N[C@@H](CCCCN)C(=O)N[C@@H](CC(C)C)C(=O)N[C@@H](CCCNC(=N)N)C(=O)N[C@@H](CC(C)C)C(=O)N[C@@H](Cc1c[nH]c2ccccc12)C(=O)N[C@@H](Cc1c[nH]cn1)C(=O)N[C@@H](CCCNC(=N)N)C(=O)N[C@@H](CCCCN)C(=O)N[C@@H](CCCNC(=N)N)C(=O)N[C@@H](Cc1ccc(O)cc1)C(=O)N[C@@H](CCCCN)C(=O)O [SR-5] (H-KRMRKRLKRKLRLWHRKRYK-OH; N-terminus assumed)
In vitro
  decomposition in rat serum: completely decomposed
  half-life: 0.0667 h
  remaining at 0.5 h, 500 μg/mL: 0%
  remaining at 1 h, 500 μg/mL: 0%
[3]
  MIC Pseudomonas aeruginosa: 128≦ μg/mL
[1]
  wound closing tension: effect of increasing the wound closing tension
[2]
  ATP (%) mean, Enterobacteria (1): 3.4%

## CC[C@H](C)[C@H](NC(=O)[C@H](CC(C)C)NC(=O)[C@H](CCCCN)NC(=O)[C@H](CC(C)C)NC(=O)[C@@H](N)CCSC)C(=O)N[C@@H](Cc1ccccc1)C(=O)N[C@@H](CC(C)C)C(=O)N[C@@H](Cc1c[nH]cn1)C(=O)N[C@@H](CCCNC(=N)N)C(=O)N[C@@H](CC(C)C)C(=O)N[C@@H](CCCCN)C(=O)N[C@@H](CCCNC(=N)N)C(=O)N[C@@H](CCSC)C(=O)N[C@@H](CCCNC(=N)N)C(=O)N[C@@H](CCCCN)C(=O)N[C@@H](CCCNC(=N)N)C(=O)N[C@@H](CC(C)C)C(=O)N[C@@H](CCCCN)C(=O)N[C@@H](CCCNC(=N)N)C(=O)N[C@@H](CCCCN)C(=O)O [SR-1] (H-MLKLIFLHRLKRMRKRLKRK-OH; N-terminus assumed)
In vitro
  decomposition in rat serum: completely decomposed
  half-life: 0.05 h
  remaining at 0.5 h, 500 μg/mL: 0%
  remaining at 1 h, 500 μg/mL: 0%
[4]
  MIC Staphylococcus epidermidis: 128< μg/mL
[1]
  wound closing tension: effect of increasing the wound closing tension
  scars of cut wounds / cicatrization by visual observation, compared with the bFGF formulation: cicatrization was hardly observed
[2]
  ATP (%) mean, Enterobacteria (1): 4.9%

## CSCC[C@H](NC(=O)[C@H](CCCNC(=N)N)NC(=O)[C@H](CCCCN)NC(=O)[C@H](CC(C)C)NC(=O)[C@H](CCCNC(=N)N)NC(=O)[C@H](Cc1c[nH]cn1)NC(=O)[C@H](CC(C)C)NC(=O)[C@H](Cc1ccccc1)NC(=O)[C@H](CCCNC(=N)N)NC(=O)[C@H](CC(C)C)NC(=O)[C@@H](N)CCC(=O)O)C(=O)N[C@@H](CCCNC(=N)N)C(=O)N[C@@H](CCCCN)C(=O)N[C@@H](CCCNC(=N)N)C(=O)N[C@@H](CC(C)C)C(=O)N[C@@H](CCCCN)C(=O)N[C@@H](CCCNC(=N)N)C(=O)N[C@@H](CCCCN)C(=O)N[C@@H](CC(C)C)C(=O)N[C@@H](CCCNC(=N)N)C(N)=O [SR-3] (H-ELRFLHRLKRMRKRLKRKLR-NH2; N-terminus assumed)
In vitro
  decomposition in rat serum: 35-55%
  half-life: 1.12 h
  remaining at 10 min, 500 μg/mL: 53%
  remaining at 1 h, 500 μg/mL: 44.4%
[1]
  wound closing tension: effect of increasing the wound closing tension
  scars of cut wounds / cicatrization by visual observation, compared with the bFGF formulation: cicatrization was hardly observed
[2]
  ATP (%) mean, Enterobacteria (1): 4.3%

## Cc1onc(-c2ccccc2)c1C(=O)N[C@@H]1C(=O)N2[C@@H]1SC(C)(C)[C@@H]2C(=O)O [OX, oxacillin, reference compound]
[5]
  MIC: 0.12 to 0.5 µg/mL (≈ 0.299 to 1.25 µM)
[4]; Staphylococcus epidermidis, JCM2414
  MIC: 0.12 to 0.5 µg/mL (≈ 0.299 to 1.25 µM)
[2]
  ATP (%) mean, Enterobacteria (1): 97.7%
